# Results as given in ChEMBL document CHEMBL5032522, “N-2-(phenylamino) benzamide derivatives as novel anti-glioblastoma agents: Synthesis and biological evaluation” (Eur J Med Chem, 2021).
# The source made the active and inactive calls. The rule behind the calls is not given here.
# What was measured:
# U-87 MG [1] = assay: Antiproliferative activity against human U-87 MG cells assessed as inhibition of cell growth measured after 72 hrs by CCK-8 assay; assay type: functional, cell-based, U-87MG ATCC
# U-251 [2] = assay: Antiproliferative activity against human U-251 cells assessed as inhibition of cell growth measured after 72 hrs by CCK-8 assay; assay type: functional, cell-based; details: U-251, 72 h
# C6 = assay: Antiproliferative activity against rat C6 cells assessed as inhibition of cell growth measured after 72 hrs by CCK-8 assay; assay type: functional, cell-based; details: C6, 72 h
# [3] = target: T1, Prostaglandin G/H synthase 2 (Homo sapiens, UniProt P35354); assay: Inhibition of human recombinant COX-2 using arachidonic acid as substrate preincubated 10 mins followed by substrate addition and measured after 2 mins by ELISA
# T1 sequence (P35354 whole entry): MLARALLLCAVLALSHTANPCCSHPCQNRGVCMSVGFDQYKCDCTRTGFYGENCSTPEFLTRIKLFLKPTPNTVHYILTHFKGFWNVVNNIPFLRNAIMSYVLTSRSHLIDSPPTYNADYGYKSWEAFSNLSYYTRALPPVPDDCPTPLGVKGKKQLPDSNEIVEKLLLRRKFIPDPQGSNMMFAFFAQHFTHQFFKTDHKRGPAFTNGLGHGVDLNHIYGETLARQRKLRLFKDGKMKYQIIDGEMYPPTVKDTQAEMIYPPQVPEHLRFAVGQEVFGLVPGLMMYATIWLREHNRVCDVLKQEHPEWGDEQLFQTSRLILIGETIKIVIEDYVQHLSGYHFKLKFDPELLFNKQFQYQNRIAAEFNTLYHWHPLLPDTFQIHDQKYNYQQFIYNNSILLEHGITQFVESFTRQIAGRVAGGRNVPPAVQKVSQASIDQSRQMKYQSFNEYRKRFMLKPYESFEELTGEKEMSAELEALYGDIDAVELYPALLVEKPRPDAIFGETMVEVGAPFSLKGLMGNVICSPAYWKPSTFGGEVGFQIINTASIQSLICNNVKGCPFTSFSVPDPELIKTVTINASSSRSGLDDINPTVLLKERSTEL
# DNA topoisomerase 1 = target: T2, DNA topoisomerase 1 (Homo sapiens, UniProt P11387); assay: Inhibition of human topoisomerase I using DNA pBR322 as substrate assessed as DNA relaxation incubated for 45 mins by ethidium bromide staining based agarose gel electrophoresis
# T2 sequence (P11387 whole entry): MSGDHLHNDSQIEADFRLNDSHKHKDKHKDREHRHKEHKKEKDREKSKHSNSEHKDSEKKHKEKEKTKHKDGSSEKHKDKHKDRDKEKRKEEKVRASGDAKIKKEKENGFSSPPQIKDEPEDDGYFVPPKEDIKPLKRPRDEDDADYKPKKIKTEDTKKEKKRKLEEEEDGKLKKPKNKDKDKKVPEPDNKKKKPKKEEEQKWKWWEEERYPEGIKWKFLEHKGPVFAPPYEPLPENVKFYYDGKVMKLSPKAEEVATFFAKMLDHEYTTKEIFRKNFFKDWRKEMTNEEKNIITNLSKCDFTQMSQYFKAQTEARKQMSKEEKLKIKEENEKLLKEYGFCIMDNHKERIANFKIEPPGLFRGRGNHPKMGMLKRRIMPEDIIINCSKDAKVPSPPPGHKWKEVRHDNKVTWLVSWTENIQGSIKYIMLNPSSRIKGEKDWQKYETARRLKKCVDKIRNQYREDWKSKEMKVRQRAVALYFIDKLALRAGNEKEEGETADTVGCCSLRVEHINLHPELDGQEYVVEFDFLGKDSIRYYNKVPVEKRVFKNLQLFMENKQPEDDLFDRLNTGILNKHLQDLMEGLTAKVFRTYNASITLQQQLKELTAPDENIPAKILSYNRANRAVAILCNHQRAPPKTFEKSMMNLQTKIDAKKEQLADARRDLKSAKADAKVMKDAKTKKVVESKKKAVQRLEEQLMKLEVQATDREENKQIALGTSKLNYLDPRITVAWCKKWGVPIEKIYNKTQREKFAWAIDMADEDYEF
# [4] = target: T3, Prostaglandin G/H synthase 2 (Rattus norvegicus) (UniProt P35355); assay: In vivo inhibition of COX2 in ip dosed orthotopic Sprague-Dawley rat model inoculated with C6 cells assessed as reduction in PGE2 production by ELISA; assay type: functional, organism-based
# T3 sequence (whole entry): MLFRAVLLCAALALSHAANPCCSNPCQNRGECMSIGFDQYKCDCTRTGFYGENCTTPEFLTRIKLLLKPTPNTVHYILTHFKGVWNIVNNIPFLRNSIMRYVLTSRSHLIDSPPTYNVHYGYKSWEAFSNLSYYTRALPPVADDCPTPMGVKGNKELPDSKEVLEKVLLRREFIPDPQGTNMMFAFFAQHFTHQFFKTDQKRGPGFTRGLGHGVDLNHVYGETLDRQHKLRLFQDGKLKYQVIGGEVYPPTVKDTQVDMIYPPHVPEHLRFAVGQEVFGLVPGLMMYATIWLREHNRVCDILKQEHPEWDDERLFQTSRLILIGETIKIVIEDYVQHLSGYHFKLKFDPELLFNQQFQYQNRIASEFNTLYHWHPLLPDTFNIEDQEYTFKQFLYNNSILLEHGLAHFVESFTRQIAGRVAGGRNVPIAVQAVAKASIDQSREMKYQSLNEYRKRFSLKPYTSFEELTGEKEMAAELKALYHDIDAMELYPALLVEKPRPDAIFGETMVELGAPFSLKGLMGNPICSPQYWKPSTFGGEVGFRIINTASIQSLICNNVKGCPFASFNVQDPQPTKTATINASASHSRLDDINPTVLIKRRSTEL
# [5] = Toxicity in Sprague-Dawley rat inoculated with C6 cells assessed as reduction in body weight at 50 mg/kg, ip bid administered for 14 days; assay type: organism-based; details: in vivo, 336 h, time 14 day
# [6] = target: T4, DNA topoisomerase 1 (Homo sapiens) (UniProt P11387); assay: Inhibition of human topoisomerase I using DNA pBR322 as substrate assessed as DNA intercalation at 100 uM incubated for 30 mins by ethidium bromide staining based agarose gel electrophoresis method
# T4 sequence (whole entry): T2 sequence (P11387 whole entry)
# U-251 [7] = assay: Inhibition of cell invasion in human U-251 cells incubated for 24 hrs by crystal violet staining based light microscopic analysis; assay type: functional
# U-87 MG [8] = assay: Inhibition of cell invasion in human U-87 MG cells incubated for 24 hrs by crystal violet staining based light microscopic analysis; assay type: functional; details: U-87MG ATCC
# U-87 MG [9] = assay: Inhibition of cell migration in human U-87 MG cells incubated for 24 hrs by crystal violet staining based light microscopic analysis; assay type: functional; details: U-87MG ATCC
# U-251 [10] = assay: Inhibition of cell migration in human U-251 cells incubated for 24 hrs by crystal violet staining based light microscopic analysis; assay type: functional
IC50 (U-87 MG [1]) [µM],IC50 (U-251 [2]) [µM],IC50 [3] [µM],IC50 (DNA topoisomerase 1) [µM],inhibition [4],inhibition [6],Compound,IC50 (C6) [µM],Activity [5],inhibition (U-251 [7]),inhibition (U-87 MG [8]),inhibition (U-87 MG [9]),inhibition (U-251 [10])
> 200,184,> 150,> 125,,,COc1ccc(NC(=O)c2ccccc2Nc2ccccc2)cc1,> 200,,,,,
54.5,178,117,50.9,,,COc1cc(NC(=O)c2ccccc2Nc2cccc(Cl)c2C)cc(OC)c1OC,> 200,,,,,
> 200,> 200,> 150,108,,,COc1ccc(NC(=O)c2cccnc2Nc2cccc(C(F)(F)F)c2)cc1,> 200,,,,,
0.06,0.37,,,,,CC[C@@]1(O)C(=O)OCc2c1cc1n(c2=O)Cc2cc3c(CN(C)C)c(O)ccc3nc2-1 [TOPOTECAN],5.8,,,,,
> 200,> 200,17.4,> 125,,,COc1ccc(CNC(=O)c2ccccc2Nc2ccccc2)cc1,> 200,,,,,
99.8,> 200,92.6,> 125,,,COc1ccc(NC(=O)c2ccccc2Nc2cccc(Cl)c2C)cc1OC,44,,,,,
26,12.9,105,105,,,O=C(Nc1ccc2c(c1)OCO2)c1ccccc1Nc1cccc(C(F)(F)F)c1,15.6,,,,,
> 100,> 100,,,,,Cc1c(Cl)cccc1Nc1ccccc1C(=O)O [TOLFENAMIC ACID],> 100,,,,,
,,,,inactive,,Cn1nnc2c(C(N)=O)ncn2c1=O [TEMOZOLOMIDE],,Toxic,,,,
> 200,> 200,115,70.9,,,COc1ccc(NC(=O)c2ccccc2Nc2cccc(Cl)c2C)c(OC)c1,> 200,,,,,
72.4,86.2,> 150,> 125,,,COc1ccc(NC(=O)c2ccccc2Nc2cccc(C(F)(F)F)c2)cc1OC,36.5,,,,,
> 200,> 200,> 150,> 125,,,COc1ccc(NC(=O)c2ccccc2NCc2ccccc2)cc1,> 200,,,,,
> 200,> 200,> 150,> 125,,inactive,c1ccc(-c2cc(-c3ccccc3)c3ncccc3n2)cc1,103,,Dose-Dependent Effect,Dose-Dependent Effect,Dose-Dependent Effect,Dose-Dependent Effect
> 200,> 200,> 150,> 125,,,COc1ccc(CCCNC(=O)c2ccccc2Nc2ccccc2)cc1,> 200,,,,,
187,> 200,> 150,61.2,,,COc1ccc(NC(=O)c2cccnc2Nc2cccc(Cl)c2C)cc1,> 200,,,,,
52.1,50.7,> 150,> 125,,,COc1cc(NC(=O)c2ccccc2Nc2cccc(C(F)(F)F)c2)cc(OC)c1OC,75.2,,,,,
> 200,165,> 150,85.7,,,COc1ccc(NC(=O)c2ccccc2Nc2cccc(Cl)c2)cc1,> 200,,,,,
> 200,92.4,> 150,> 125,,,CSc1ccc(NC(=O)c2ccccc2Nc2cccc(C(F)(F)F)c2)cc1,> 200,,,,,
73.5,138,> 150,> 125,,,COc1ccc(NC(=O)c2ccccc2Nc2cccc(C)c2C)cc1,> 200,,,,,
144,> 200,48.1,85.6,,,COc1ccc(NC(=O)c2ccccc2Nc2cccc(C)c2C)cc1OC,169,,,,,
,,,,,Active,COc1cc(NS(C)(=O)=O)ccc1Nc1c2ccccc2nc2ccccc12,,,,,,
142,> 200,> 150,> 125,,,COc1ccc(NC(=O)c2ccccc2Nc2cccc(C(F)(F)F)c2)cc1,99.1,,,,,
> 200,> 200,> 150,107,,,COc1ccc(CCNC(=O)c2ccccc2Nc2ccccc2)cc1,130,,,,,
